According to patent US4870210A, “Aminoguanidine derivative as anti-inflammatory agents” (American Home Products Corporation, priority 1987, dated 1989):

Columns and labels:
[1] = rat carrageenan paw edema assay; format: in vivo, rat (male Sprague-Dawley); conditions: po, 3 h, read-out: Oral ED50 (95% C.L.)
Procedure: The compounds of the invention are further tested in the rat carrageenan paw edema assay to determine their ability to inhibit the acute inflammatory response. This assay is carried out as follows: 140-180 gm male Sprague-Dawley rats, in groups of 6 animals are injected subcutaneously in the right paw with 0.1 ml of 1% carrageenan at zero time. Mercury plethysmographic readings (ml) of the paw are made at zero time and 3 hours later. Test compounds are suspended or dissolved in 0.5% methylcellulose and given perorally 1 hour prior to carrageenan administration. The increase in paw volume (edema in ml.) produced by the carrageenan is measured. […] Unpaired Student's t-test is used to determine statistical significance.

[2] = test system: synthesis of the arachidonic acid cyclooxygenase oxidation product TxB2; assay: inhibition of the synthesis of the cyclooxygenase oxidation product TxB2 by rat polymorphonuclear leukocytes; format: cell-based, rat (female Wistar); conditions: Leukocyte; rat PMN, A23187 stimulated
Procedure: (§1) Rat polymorphonuclear leukocytes (PMNs) are obtained from female Wistar rats (150-200 g) which receive an injection of 6% glycogen (10 ml i.p.). Rats are sacrificed 18-24 hours post injection by CO2 asphyxiation and the elicited cells are harvested by peritoneal lavage using physiological saline (0.9% NaCl). The exudate is centrifuged at 400×g for 10 minutes. The supernatant fluid is discarded and the cell pellet is resuspended in a concentration of 2.0×10^7 cells/ml in HBSS containing Ca^++ and Mg^++ and 10 μM L-cyteine.
To 1 ml aliquots of cell suspension, test drugs or vehicle are added, then preincubated at 37° C. for 10 minutes. A23187 (1 μM) and [^3 H]-AA (3.0 μCi/ml) are then added and the samples are further incubated for 10 minutes. The reaction is terminated by centrifugation and pelleting cells. Supernatants are then analyzed by HPLC analysis on a 15 cm×4.6 mm ID Supelcosil LC-18 (Supelco)(3M) column, using a two solvent system at a flow rate of 1.4 ml total flow as follows:
Co-chromatography with standard [^3 H] leukotriene B4 (LTB4) in medium of stimulated PMN exposed to drug is compared to that found in medium of stimulated cells exposed to no drug, generating percent inhibition.
In this assay, the procedure of Example 3 is carried out as described. […]
The results are calculated as in Example 3 and presented below: […]

[3] = test system: synthesis of PGE2 by murine peritoneal macrophages; assay: inhibition of the synthesis of PGE2 by murine peritoneal macrophages; format: cell-based, mouse (CD-1); conditions: Mus musculus, Peritoneal macrophage, zymosan or TPA stimulus, RIA
Procedure: (§2) The ability of the compounds of the invention to inhibit both leukotriene and prostaglandin synthesis is examined in an assay which measures the ability of the compounds of the invention to inhibit the synthesis of PGE2 and LTC4 by murine peritoneal macrophages.
(§3) The assay is carried out as follows:
(§4) Macrophages are removed from the peritoneal cavity of 55-57 day old CD-1 mice (killed by CO2 asphyxiation) by peritoneal lavage and centrifuged at 400×g for ten minutes. The cells are resuspended in Medium 199 and 4×10^6 cells are allowed to adhere on 35×10 mm Petri dishes for 1.5 hours at 37° C. in an atmosphere of 95% air and 5% CO2. The cell monolayers are washed and incubated overnight in Medium 199 supplemented with 10% heat inactivated bovine serum containing 1 μCi[^14 C]-arachidonic acid, or in the absence of ^14 C-arachidonic acid when the supernatant is to be assayed by radioimmunoassay (RIA). The labeled cells are then washed and incubated at 37° C. for 2 hours in Medium 199 with the prostaglandin stimuli, zymosan, or 12-o-tetradecanoyl-phorbol-13-acetate (TPA) and in the presence or absence of test compounds. Following incubation, the supernatant is removed and subjected to radioimmunoassay in order to determine the percent inhibition of prostaglandin E2 and leukotriene C4 by the test compounds.

[4] = test system: synthesis of LTB4 by rat glycogenelicited polymorphonuclear leukocytes (PMN); assay: inhibition of the synthesis of LTB4 (lipoxygenase oxidation product) by rat glycogen-elicited polymorphonuclear leukocytes (PMN); format: cell-based, rat (female Wistar); conditions: Leukocyte, A23187 stimulated
Procedure: This is especially true with respect to 5,12-diHETE, which also denoted as LTB4 [see Ford-Hitchinson, J. Roy. Soc. Med., 74, 831 (1981)]. The assay of this Example measures the ability of the compounds of the invention to inhibit the synthesis of LTB4 by rat glycogenelicited polymorphonuclear leukocytes (PMN).
as §3, §1
To 1 ml aliquots of cell suspension, test drugs or vehicle are added, then preincubated at 37° C. for 10 minutes. […] Supernatants are then analyzed by HPLC analysis on a 15 cm×4.6 mm ID Supelcosil LC-18 (Supelco)(3M) column, using a two solvent system at a flow rate of 1.4 ml total flow as follows: […]
Injections: 150 μl of each supernatant is injected directly onto column and ^3 H arachidonic acid metabolites are monitored using an on-line radioactivity detector (Ramona, IN/US, Fairfield, NJ). […]

[5] = test system: synthesis of LTC4 by murine peritoneal macrophages; assay: inhibition of the synthesis of LTC4 by murine peritoneal macrophages; format: cell-based, mouse (CD-1); conditions: Mus musculus, Peritoneal macrophage, zymosan or TPA stimulus, RIA
Procedure: as §2, §3, §4

Row | IC50 [2] | IC50 [3] | IC50 [4] | IC50 [5] | Structure (SMILES) | ED50 [1]
1 | – | – | – | – | CC(=O)Oc1ccccc1C(=O)O [Aspirin] | 145 mg/kg
2 | 11.2 µM | 43 µM | 8.9 µM | 33 µM | CC(=NNC(=N)N)c1cccc(OCc2ccc3ccccc3c2)c1 [Example 1, 2-[1-[3-(2-Naphthalenylmethoxy)phenyl]ethylidene]-hydrazinecarboximidamide] | –
3 | – | – | – | – | COc1ccc2c(c1)c(CC(=O)O)c(C)n2C(=O)c1ccc(Cl)cc1 [Indomethacin] | 3.7 mg/kg
